Assay results from patent US20190022117A1, “COMBINATION THERAPY” (NuCana plc, priority 2015, published 2019).

Experiments:
[1] = ABC-008 clinical study (NUC-1031 in combination with cisplatin), plasma pharmacokinetics; type: in vivo, human
Experimental: Initial pharmacokinetic analysis was conducted on samples obtained from the first three patients on the ABC-008 clinical study.
Patient 1: —Metastatic Biliary Tract Carcinoma—Starting dose: 625 mg/m^2 (S)-NUC-1031+25 mg/m^2 cisplatin
Patient 2: —Metastatic Biliary Tract Carcinoma—Starting dose: 625 mg/m^2 (S)-NUC-1031+25 mg/m^2 cisplatin
Patient 3: —Metastatic Biliary Tract Carcinoma—Starting dose: 625 mg/m^2 (S)-NUC-1031+25 mg/m^2 cisplatin
Both NUC-1031 and cisplatin were administered on days 1 and 8 of a 21 day cycle.
An appropriate dosage of 625 mg/m^2 of NUC-1031 was prepared in a Luerlock syringe. The dosage given was based on the subject's height and weight using a standard body surface area (BSA) calculation. A polyethylene extension line was primed with up to 1.5 ml of Flushing Solution, prior to connecting the syringe containing NUC-1031 to the extension line.
The extension line was connected to the patient's Central Venous Access Device (CVAD), and NUC-1031 was injected at a rate of 20 ml/hour using a syringe pump.
Once the injection was complete the NUC-1031 syringe was disconnected from the extension line, and the extension line was then flushed with an additional volume of up to 3 ml of Flushing solution.

[2] = ProGem1 clinical study (NUC-1031 alone), intracellular dFdCTP pharmacokinetics; type: in vivo, human; conditions: ProGem1 (n = 67), NUC-1031 as a single agent; no normalisation
Source text: ProGem1 was a first-time-in-human (FTIH), phase I, open label, two stage study to investigate the safety, tolerability, clinical efficacy, pharmacokinetics (PK) and pharmacodynamics (PD) of NUC-1031 given in two parallel dosing schedules in subjects with advanced solid malignancies (EudraCT Number: 2011-005232-26). Subjects had the following tumour types at study entry: colorectal cancer (7 subjects), unknown primary (3), ovarian cancer (12), breast cancer (4), pancreatic cancer (9), cholangiocarcinoma (7), endometrial cancer (3), cervical cancer (2), lung cancer (7), mesothelioma (3), oesophageal cancer (3), cancer of the fallopian tube (1), trophoblast (1), renal cancer (1), gastric cancer (1), anal cancer (1), cancer of the thymus (1) and osteosarcoma (1).

[3] = ABC-008 (with cisplatin) compared to ProGem1 (single agent NUC-1031)

C[C@H](NP(=O)(OC[C@H]1O[C@@H](n2ccc(N)nc2=O)C(F)(F)[C@H]1O)Oc1ccccc1)C(=O)OCc1ccccc1 (stereo partly drawn) [NUC-1031, 2′-Deoxy-2′,2′-difluoro-D-cytidine-5′-O-[phenyl (benzoxy-L-alaninyl)] phosphate]
AUC increase, NUC-1031 plasma [1, 3]: 2.1 fold
Cmax increase, NUC-1031 plasma [1, 3]: 1.9 fold
increase in half-life, NUC-1031 plasma PK parameters ([1]; ABC-008 (with cisplatin) compared to single agent NUC-1031): 3.6 fold
Mean AUC0-24, intracellular dFdCTP [2]: 1379.0 pmol/million cells · hr
Mean Cmax, intracellular dFdCTP [2]: 391.8 pmol/million cells
